Assay results as given in the supplement of paper PMC4862054.

Columns and labels:
Settings in all cases: incubation time: 72 h
[1] = test system: MDA-MB-231; experiment: normalised response (% of control), CellTiter-Glo; higher = more viable cells (100 = DMSO, 0 = benzethonium chloride kill control)
How it was run: (§1)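 Breast cancer cell lines were exposed for 72 h in 384-well plates to compound at 5 concentrations, 10-fold apart, covering a 10,000-fold range fixed for each compound. Plates were read for CellTox Green fluorescence and CellTiter-Glo luminescence and normalised to 0.1 % DMSO (100) and a positive kill control (0). Each value is the normalised signal at one concentration of the series.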

[2] = test system: CAL-51; experiment: as above
How it was run: as §1

[3] = test system: BT-549; experiment: as above
How it was run: as §1

[4] = test system: CAL-85-1; experiment: as above
How it was run: as §1

[5] = test system: MDA-MB-468; experiment: as above
How it was run: as §1

[6] = test system: HCC1937; experiment: as above
How it was run: as §1

[7] = test system: DU-4475; experiment: as above
How it was run: as §1

[8] = test system: BT-474; experiment: as above
How it was run: as §1

[9] = test system: MDA-MB-436; experiment: as above
How it was run: as §1

[10] = test system: MCF-10A; experiment: as above
How it was run: as §1

[11] = test system: CAL-148; experiment: as above
How it was run: as §1

[12] = test system: Hs578T; experiment: as above
How it was run: as §1

[13] = test system: HCC1599; experiment: as above
How it was run: as §1

[14] = test system: HDQ-P1; experiment: as above
How it was run: as §1

[15] = test system: SK-BR-3; experiment: as above
How it was run: as §1

[16] = test system: MFM-223; experiment: as above
How it was run: as §1

[17] = test system: CAL-120; experiment: as above
How it was run: as §1

[18] = test system: HCC1143; experiment: as above
How it was run: as §1

[19] = test system: MDA-MB-453; experiment: as above
How it was run: as §1

[20] = test system: MDA-MB-231; experiment: normalised response (% of control), CellTox Green; higher = less cell death (100 = DMSO, 0 = benzethonium chloride kill control)
How it was run: as §1

[21] = test system: CAL-51; experiment: as above
How it was run: as §1

[22] = test system: BT-549; experiment: as above
How it was run: as §1

[23] = test system: CAL-85-1; experiment: as above
How it was run: as §1

[24] = test system: MDA-MB-468; experiment: as above
How it was run: as §1

[25] = test system: HCC1937; experiment: as above
How it was run: as §1

[26] = test system: DU-4475; experiment: as above
How it was run: as §1

[27] = test system: BT-474; experiment: as above
How it was run: as §1

[28] = test system: MDA-MB-436; experiment: as above
How it was run: as §1

[29] = test system: MCF-10A; experiment: as above
How it was run: as §1

[30] = test system: CAL-148; experiment: as above
How it was run: as §1

[31] = test system: Hs578T; experiment: as above
How it was run: as §1

[32] = test system: HCC1599; experiment: as above
How it was run: as §1

[33] = test system: HDQ-P1; experiment: as above
How it was run: as §1

[34] = test system: MFM-223; experiment: as above
How it was run: as §1

[35] = test system: CAL-120; experiment: as above
How it was run: as §1

[36] = test system: HCC1143; experiment: as above
How it was run: as §1

[37] = test system: MDA-MB-453; experiment: as above
How it was run: as §1

## C/C(=C\c1csc(C)n1)[C@@H]1C[C@@H]2O[C@]2(C)CCC[C@H](C)[C@H](O)[C@@H](C)C(=O)C(C)(C)[C@@H](O)CC(=O)N1 [Ixabepilone] (10 nM)
[1]
  normalised response: 98.6%
[2]
  normalised response: 86%
[3]
  normalised response: 102%
[4]
  normalised response: 97.5%
[5]
  normalised response: 93.7%
[6]
  normalised response: 95.4%
[7]
  normalised response: 104%
[8]
  normalised response: 100%
[9]
  normalised response: 106%
[10]
  normalised response: 108%
[11]
  normalised response: 102%
[12]
  normalised response: 107%
[13]
  normalised response: 95.2%
[14]
  normalised response: 102%
[15]
  normalised response: 113%
[16]
  normalised response: 105%
[17]
  normalised response: 102%
[18]
  normalised response: 102%
[19]
  normalised response: 101%
[20]
  normalised response: 102%
[21]
  normalised response: 102%
[22]
  normalised response: 82.4%
[23]
  normalised response: 99%
[24]
  normalised response: 123%
[25]
  normalised response: 107%
[26]
  normalised response: 104%
[27]
  normalised response: 98.7%
[28]
  normalised response: 86.6%
[29]
  normalised response: 84.4%
[30]
  normalised response: 94.7%
[31]
  normalised response: 84%
[32]
  normalised response: 101%
[33]
  normalised response: 101%
[34]
  normalised response: 95.7%
[35]
  normalised response: 102%
[36]
  normalised response: 80.8%
[37]
  normalised response: 93.6%

## Cc1nc(C(=O)NCC(=O)O)c(O)c2ccc(Oc3ccccc3)cc12 [FG-4592] (100 nM)
[1]
  normalised response: 111%
[2]
  normalised response: 97.4%
[3]
  normalised response: 106%
[4]
  normalised response: 104%
[5]
  normalised response: 97.1%
[6]
  normalised response: 98%
[7]
  normalised response: 103%
[8]
  normalised response: 101%
[9]
  normalised response: 98.6%
[10]
  normalised response: 115%
[11]
  normalised response: 108%
[12]
  normalised response: 105%
[13]
  normalised response: 112%
[14]
  normalised response: 98.3%
[15]
  normalised response: 112%
[16]
  normalised response: 106%
[17]
  normalised response: 102%
[18]
  normalised response: 106%
[19]
  normalised response: 101%
[20]
  normalised response: 112%
[21]
  normalised response: 102%
[22]
  normalised response: 105%
[23]
  normalised response: 103%
[24]
  normalised response: 114%
[25]
  normalised response: 79.8%
[26]
  normalised response: 105%
[27]
  normalised response: 98.2%
[28]
  normalised response: 97%
[29]
  normalised response: 101%
[30]
  normalised response: 95.8%
[31]
  normalised response: 94.9%
[32]
  normalised response: 90.1%
[33]
  normalised response: 106%
[34]
  normalised response: 92.8%
[35]
  normalised response: 102%
[36]
  normalised response: 109%
[37]
  normalised response: 103%

## C=CCN(/C=C1/C(=O)O[C@H](COC)[C@@]2(C)C1=C(O)C(=O)C1=C2[C@H](OC(C)=O)C[C@]2(C)C(=O)CC[C@@H]12)CC=C [Sonolisib] (100 nM)
[1]
  normalised response: 107%
[2]
  normalised response: 85.2%
[3]
  normalised response: 106%
[4]
  normalised response: 109%
[5]
  normalised response: 105%
[6]
  normalised response: 99.7%
[7]
  normalised response: 105%
[8]
  normalised response: 106%
[9]
  normalised response: 106%
[10]
  normalised response: 108%
[11]
  normalised response: 116%
[12]
  normalised response: 94.7%
[13]
  normalised response: 104%
[14]
  normalised response: 102%
[15]
  normalised response: 107%
[16]
  normalised response: 107%
[17]
  normalised response: 109%
[18]
  normalised response: 105%
[19]
  normalised response: 102%
[20]
  normalised response: 110%
[21]
  normalised response: 102%
[22]
  normalised response: 108%
[23]
  normalised response: 106%
[24]
  normalised response: 112%
[25]
  normalised response: 121%
[26]
  normalised response: 106%
[27]
  normalised response: 96.5%
[28]
  normalised response: 107%
[29]
  normalised response: 72.8%
[30]
  normalised response: 98.6%
[31]
  normalised response: 73.7%
[32]
  normalised response: 115%
[33]
  normalised response: 63.5%
[34]
  normalised response: 109%
[35]
  normalised response: 101%
[36]
  normalised response: 117%
[37]
  normalised response: 106%
